Test results: patent US8968702B2, “Inhibition of HIF-1 activation for anti-tumor and anti-inflammatory responses” (Duke University, priority 2006, dated 2015)
Like-named read-outs stand apart in the source and are kept apart here. Where a SMILES comes first, the peptide text is derived from it. The star is where a group is joined. Cbz = O=C(OCc1ccccc1)*

Key:
[1] = tested on: HIF-1α; type: cell-based, murine
[2] = tested on: constitutively expressed luciferase; test: CMV-luc control reporter in irradiated 4T1 tumors in nude mice; type: in vivo; conditions: 4T1-luc tumors, 6 Gy, with or without L-NAME
Excerpt: Plasmids and cloning procedures. The HIF-1α bioluminescence reporter (ODD-luc) construct was created by fusing PCR product of ODD domain of HIF-1α (GENBANK® Accession No. U59496) to the 5′ end of firefly luciferase reporter gene. Along with this construct, a luciferase expression vector in which luciferase gene was driven by the CMV promoter was used as a control. […] ODD fragments with or without the mutation were cloned into pCMV-3Tag-4B Epitope Tagging Mammalian Expression vector (Stratagene, La Jolla, Calif., United States of America). The full length mouse VHL gene (GENBANK® Accession No. S76748) was cloned form mouse tissue and tagged with HA tag by PCR. All constructs were sequence-verified.
Imaging luciferase activity.
(§1) Animal experiments. […] Drinking water was renewed daily until animal sacrifice.

[3] = tested on: 4T1 (murine mammary adenocarcinoma); test: Tumor growth delay with radiotherapy, 4T1 tumors; type: in vivo; conditions: syngeneic mice, 3 fractions of 6 Gy every other day, L-NAME in drinking water
Excerpt: as §1
(§2) Statistics. Student's t test, one-way and two-way ANOVA were used where indicated. In growth delay experiments, the numbers of days for tumors to reach 5× their initial volume were used for comparing different treatment groups.

[4] = tested on: B16F10 (murine melanoma); test: Tumor growth delay with radiotherapy, B16F10 tumors; type: in vivo; conditions: syngeneic C57BL/6 mice, 3 fractions of 6 Gy every other day, L-NAME in drinking water
Excerpt: as §1, §2

[5] = tested on: tumor vasculature; test: CD31 vessel staining / vascular density in tumors; type: in vivo, mice; conditions: 4T1 and B16F10 tumors excised on day 10
Experimental: Vessel staining was performed on tumor cryoslices by using the VECTASTAIN® ABC and the NOVARED™ kits from Vector Laboratories (Burlingame, Calif., United States of America), according to the manufacturer's protocol. The primary anti-CD31 antibody (Santa Cruz Biotechnology, Santa Cruz, Calif.) was labeled with a secondary biotinylated anti-rabbit antibody (Jackson ImmunoResearch Labs, Inc.). Slices were counterstained using Harris' hematoxilin. Vascular density was determined by counting CD31-positive structures in 5 random fields per tumor.

[6] = tested on: HIF-1α; test: Radiation-induced ODD-luc in 4T1 tumors in macrophage-depleted nude mice; type: in vivo; conditions: 4T1-ODD-luc tumors, carrageenan 2 mg i.p. repeated, 6 Gy
Experimental: Imaging luciferase activity. Luciferase expression/activity was detected and quantified as relative light units (RLUs) by using the Xenogen IVIS™ imaging system and associated LIVING IMAGE® software (Xenogen, Alameda, Calif., United States of America). […] For in vivo experiments, treated tumor-bearing mice received an i.p. injection of luciferin (150 mg/kg) during isofluorane anesthesia. Repeated images of luciferase expression/activity were acquired following manufacturer's specified procedures.
Animal experiments. Female NIH Swiss nude mice, C57BL/6 mice were purchased from the National Cancer Institute (NCI; Fredrick, Md., United States of America). Mice with a genetic disruption of the inducible nitric acid synthase gene (C57BL/6 iNOS^−/−) were obtained from the Jackson Laboratory (Bar Harbor, Me., United States of America). Female BALB/c mice were obtained from Charles River Laboratories (Raleigh, N.C., United States of America). Animals were maintained and cared for in accordance with the Duke University Institutional Animal Care and Use Committee guidelines. For tumor implantation, 4T1 tumors were grown in nude mice or in syngeneic BALB/c mice, and B16F10 melanoma in syngeneic C57BL/6 or iNOS^−/− mice. […]

[Cl-].[Cl-].[Co+2] [CoCl2]
luminescence from ODD-luc reporter gene expression [1]: rose significantly

COC(=O)[C@@H](N)CCCNC(=N)N[N+](=O)[O-] [L-NAME, Nω-nitro-L-arginine methyl ester]
activity of constitutively expressed luciferase (CMV-luc control) [2]: did not influence the activity of constitutively expressed luciferase activity
tumor growth delay, L-NAME with radiotherapy [3]: significantly enhanced the therapeutic efficacy of radiotherapy
tumor growth delay, L-NAME with radiotherapy [4]: significantly enhanced the therapeutic efficacy of radiotherapy
tumor vasculature (CD31+ vascular density), L-NAME with radiotherapy [5]: significantly reduced tumor vasculature

CC(C)C[C@@H](C=O)NC(=O)[C@H](CC(C)C)NC(=O)[C@H](CC(C)C)NC(=O)OCc1ccccc1 [MG132] (Cbz-Leu-Leu-Leu-aldehyde)
luminescence from ODD-luc reporter gene expression ([1]; CoCl2 240 μM for 12 hrs, MG132 10 μM for 12 hrs, versus background): rose significantly

CC1(C)N([O])C(c2ccc(C(=O)[O-])cc2)=[N+]([O-])C1(C)C.[K+] [carboxy-PTIO, potassium 2-(4-carboxyphenyl)-4,4,5,5-tetramethylimidazoline-1-oxyl-3-oxide]
suppression of GSNO-induced HIF-1α activation (ODD-luc) [1]: effectively suppressed HIF-1α activation by GSNO

carrageenan
radiation-induced ODD-luc activation after macrophage depletion [6]: significant reduction in radiation-induced ODD-luc activation
